pEC50, pIC50: −log10 of the molar value. “Also recorded” adds a separate entry of the source. Counter-ions that a name gives are not always drawn. Like-named read-outs stand apart in the source and are kept apart here.
How the values were obtained:
[1] = target: T1, αSN (15 μM monomeric αSN doped with 5% αSN PFF seeds) (Homo sapiens, UniProt P37840); experiment: Seeded Thioflavin-T aggregation assay; assay type: biochemical; details: 15 μM αSN monomer + 5% PFF; for pIC50: 37 °C, max ThT intensity
T1 construct: made in house; host or cells: Escherichia coli BL21(DE3), T7-7 plasmid
Description: Figure 11 and Supplementary Fig. 23 present results from a dose-response-seeded aggregation assay. Vehicle, control, and hit compounds were incubated with 15 µM αSN(m), doped with 5% freshly sonicated αSN PFF in PBS under mild agitation (Supplementary Fig. 23a). […] Titration of control and hit compounds were run in triplicate; representative traces of hit compounds are illustrated in Fig. 11a with a full summary of each titration detailed in Supplementary Fig. 23c–h. IC50 was determined for each compound by determining the max ThT intensity for each concentration (Fig. 11b).
Seeded ThT aggregation assay was performed using 15 μM monomeric αSN doped with 5% (0.75 μM sonicated αSN pre-formed fibril (PFF) seeds) in a 384-well plate under slow agitation (300 RPM) at 37 °C. a Control samples for the aggregation include PBS (black), αSN monomer (brown), 5% αSN PFF (red), and the 15 μM monomer+5% PFF mixture (orange). Dose-response curves were made with a titration of compounds. […] In contrast, RO and DEM both show potent effects relative to Baicalin and EGCG controls. BAY does have some response, but it lags behind other hit compounds. b Normalizing the initial peak in ThT data allows us to estimate an IC50 for each hit. […] Although there is a small trend with BAY, the data cannot be fit to resolve an IC50.
ThT (Sigma, product no. T3516) was dissolved in PBS buffer and was filtered through a 0.2-µm syringe filter to make a stock solution of 2.5 mM. Working ThT concentration was 20 µM. PFF seeds were produced via constant agitation of 1000 RPM at 37 °C (ThermoMixer-C, Eppendorf, Hauppauge, NY) of 500 µL of 350 µM αSN in PBS in a 2 mL tube for 5 days. PFFs were aliquoted and flash frozen and stored at −80 °C until further use. PFF seeds were rapidly thawed, diluted to 35 µM in PBS, and sonicated 120 pulses at 50% using a probe-tip sonicator following the established protocols. Master mix samples for each of the different ThT assays were prepared and dispensed in triplicate as 50 µL in 384-well flat, black-bottom polypropylene plates (PN 781209, Greiner Bio-One) and sealed with fluorescently transparent film. Conditions for non-seeded, seeded, and cell homogenate assays varied slightly.
Seeded ThT experiments were performed at a lower monomer concentration to preclude spontaneous αSN aggregation during the time course of the experiment. For both seeded and cell homogenate experiments, sample were prepared in PBS + 20 µM ThT with or without 15 µM αSN(m) +/− 5% PFF (0.75 µM). Additional control samples of 15 µM PFF and 0.75 µM PFF were also prepared. All empty wells were filled with PBS for a thermal sink and to help prevent evaporation. Assay plates were prepared as pre-cellular FRET dose response above. Dose response was done across 8 concentrations (10 nM to 50 µM). The assay was run at 37 °C with mild shaking (200 RPM) in a Cytation3 plate reader. The ThT fluorescence was monitored with excitation filter of 450 nm and emission filter of 490 nm. Readings were acquired every 20 min for a minimum of 24 h. Seeded ThT aggregation IC50 values were determined by first normalizing all ThT curves to the maximal signal at plateau for the αSN + 5% PFF + DMSO samples. The normalized fluorescence at each concentration was fit to the Hill equation to resolve an effective IC50 of seeded aggregation inhibition.

[2] = target: T2, A53T αSN oligomer (inter-protomeric) FRET biosensor in HEK293 cells (Homo sapiens, UniProt P37840, A53T); experiment: FLT dose response, A53T oligomer (inter-protomeric) FRET biosensor; assay type: cell-based; details: 1 nM to 50 μM
T2 construct: In addition to full-length αSN fusion constructs, we observe both C-terminally and N-terminally truncated αSN species; expressed in transfected cells; host or cells: HEK293
Description: Hits from the pilot HTS of the LOPAC library were selected and dispensed into 384-well plates to verify reproducible and specific FLT trends using the WT and A53T oligomer (inter-protomeric) FRET biosensors. Figure 6 presents a subset of these dose-response curves for hit compounds RO, BAY, SB206553, and DEM, along with known control compound EGCG. […] Assay quality was determined by Z′ (Eq. 2) where a Z′ > 0.5 indicates good assay quality. Using EGCG as control compound and the hit DEM, we calculated Z′ value of 0.76 and 0.66, respectively, indicating excellent assay quality.
Fig. 6 FRET dose response of pilot HTS hits. A subset of hits were evaluated using both WT (a) and A53T (b) oligomer biosensor to verify both increased FLT (disrupting αSN–αSN interactions) and decreased FLT (tighter aggregation or remodeled oligomers).
Compounds were tested in a FLT dose-response assay. The compound was dissolved to 10 mM in DMSO, then serially diluted in 96-well mother plates. Each hit was re-screened for FLT dose response across eight concentrations (1 nM to 50 μM). Compounds (0.5 μL) were transferred from mother plates into assay plates using a Mosquito HV liquid handler (TTP Labtech Ltd, UK). The preparations for αSN FRET biosensors were carried out as above.

[3] = system: SH-SY5Y cells overexpressing unlabeled wild-type (WT) αSN; experiment: CytoTox-Glo cytotoxicity assay: rescue of αSN-induced cytotoxicity; assay type: cell-based, human; details: for rescue of αSN-induced cytotoxicity: dose response, 48-h exposure; for rescue of toxicity in three-dose preliminary screen: three-dose assay; for pEC50: read-out: EC50, protection of SH-SY5Y cells from αSN-induced death
Description: Hit compounds were evaluated for rescue of αSN-induced cytotoxicity in using an SH-SY5Y neuroblastoma cell model of alpha-synucleinopathy[18],[69]–[72]. […] A seven-point CRC for RO, BAY, DEM, and Anle138b (positive control compound[41],[73]) was performed to determine IC50 for each compound. […]
Cell cytotoxicity was measured using the CytoTox-Glo (Promega Corporation) Luminescence Assay Kit. SH-SY5Y human neuroblastoma cells were plated at a density of 5 × 10^6 cells/plate in 100 mm plate (Corning) and transfected with unlabeled WT αSN or equivalent vector-only control for 24 h. The transfected cells were then plated at a density of 5000 cells/well in white solid 96-well plate (Corning) with a total volume of 100 μL, followed by treatment with hit compounds spanning a range of concentrations (0.1 nM to 100 μM), as well as DMSO-only controls, for another 48 h. After incubation, 50 μL of CytoTox-Glo Cytotoxicity Assay Reagent was added to all wells followed by mixing by orbital shaking and incubation in the dark for 15 min at RT. Luminescence readings were measured using a Cytation3 Cell Imaging Multi-Mode Reader luminometer (BioTek). After the first read, 50 μL of Lysis Reagent was added, incubated for 15 min at RT, and a second read performed. Total viable cellular luminance was determined by the difference between the first and second luminescence signal and total cellular viability is determined by normalizing to the no-treatment samples.

| SMILES | effect on seeded aggregation ([1]; titration up to 50 μM) | FLT trend in dose response [2] | rescue of αSN-induced cytotoxicity [3] | rescue of toxicity in three-dose preliminary screen [3] | pIC50 [1] | pEC50 ([3]; Homo sapiens, SH-SY5Y, 72-h transfection, 48-h exposure to compound, seven-point CRC) | pIC50 ([3]; Homo sapiens, SH-SY5Y, 72-h transfection, 48-h exposure to compound, seven-point CRC, read-out: IC50, inhibition of αSN-induced toxicity) | pEC50 ([3]; 72-h transfection, 48-h exposure to compound, seven-point CRC) |
| --- | --- | --- | --- | --- | --- | --- | --- | --- |
| COC(=O)C1=C(C)NC(C)=C([N+](=O)[O-])C1c1ccccc1C(F)(F)F (racemic) [BAY, (±)-Bay K 8644] | cannot be fit | reduced FLT | reduced effect; also recorded: did not rescue | only mild recovery | – | – | – | – |
| CN(C)[C@@H]1C(O)=C(C(N)=O)C(=O)[C@@]2(O)C(O)=C3C(=O)c4c(O)ccc(Cl)c4[C@@H](O)[C@H]3C[C@@H]12 [DEM, Demeclocycline HCl] | – | reduced FLT | clear dose-dependent rescue of toxicity | strong response | 6.00 | 7.19 | 7.19 | – |
| Nc1ccc(-c2nc3ccc(-c4nc5ccc(N)cc5[nH]4)cc3[nH]2)cc1 [RO, Ro 90–7501] | – | reduced FLT | clear dose-dependent rescue of toxicity | strong response | 6.03 | – | – | 7.11 |
